Results taken from PubChem BioAssay (NCI).
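Assay format: 96-well plates, 48-hour exposure. Here, GI50 denotes the concentration required for 50% inhibition of growth. The concentration for full growth arrest is given as TGI.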

How the values were obtained:
Assay in all cases: NCI-60 cell line screen, 48 h
786-0 renal = system: 786-0 renal
A498 renal = system: A498 renal
A549 NSCLC = system: A549 NSCLC
ACHN renal = system: ACHN renal
BT-549 breast = system: BT-549 breast
CAKI-1 renal = system: CAKI-1 renal
CCRF-CEM leukemia = system: CCRF-CEM leukemia
COLO 205 colon = system: COLO 205 colon
DU-145 prostate = system: DU-145 prostate
EKVX NSCLC = system: EKVX NSCLC
HCC-2998 colon = system: HCC-2998 colon
HCT-116 colon = system: HCT-116 colon
HCT-15 colon = system: HCT-15 colon
HL-60(TB) leukemia = system: HL-60(TB) leukemia
HOP-62 NSCLC = system: HOP-62 NSCLC
HOP-92 NSCLC = system: HOP-92 NSCLC
HS 578T breast = system: HS 578T breast
HT29 colon = system: HT29 colon
IGROV1 ovarian = system: IGROV1 ovarian
K-562 leukemia = system: K-562 leukemia
KM12 colon = system: KM12 colon
LOX IMVI melanoma = system: LOX IMVI melanoma
M14 melanoma = system: M14 melanoma
MALME-3M melanoma = system: MALME-3M melanoma
MCF7 breast = system: MCF7 breast
MDA-MB-231 breast = system: MDA-MB-231 breast
MDA-MB-435 = system: MDA-MB-435
MOLT-4 leukemia = system: MOLT-4 leukemia
NCI-H226 lung = system: NCI-H226 lung
NCI-H23 lung = system: NCI-H23 lung
NCI-H460 lung = system: NCI-H460 lung
NCI-H522 lung = system: NCI-H522 lung
NCI/ADR-RES ovarian = system: NCI/ADR-RES ovarian
OVCAR-3 ovarian = system: OVCAR-3 ovarian
OVCAR-4 ovarian = system: OVCAR-4 ovarian
OVCAR-5 ovarian = system: OVCAR-5 ovarian
OVCAR-8 ovarian = system: OVCAR-8 ovarian
PC-3 prostate = system: PC-3 prostate
RPMI-8226 leukemia = system: RPMI-8226 leukemia
RXF 393 renal = system: RXF 393 renal
SF-268 CNS = system: SF-268 CNS
SF-295 CNS = system: SF-295 CNS
SF-539 CNS = system: SF-539 CNS
SK-MEL-2 melanoma = system: SK-MEL-2 melanoma
SK-MEL-28 melanoma = system: SK-MEL-28 melanoma
SK-MEL-5 melanoma = system: SK-MEL-5 melanoma
SK-OV-3 ovarian = system: SK-OV-3 ovarian
SN12C renal = system: SN12C renal
SNB-19 CNS = system: SNB-19 CNS
SNB-75 CNS = system: SNB-75 CNS
SR leukemia = system: SR leukemia
SW-620 colon = system: SW-620 colon
T-47D breast = system: T-47D breast
TK-10 renal = system: TK-10 renal
U251 CNS = system: U251 CNS
UACC-257 melanoma = system: UACC-257 melanoma
UACC-62 melanoma = system: UACC-62 melanoma
UO-31 renal = system: UO-31 renal

Structure (SMILES): COc1cc(Nc2ncc3c(C)nc(-c4cccc(C(F)(F)F)c4)n3n2)cc(OC)c1OC
- GI50 (786-0 renal): 3.96 µM
- TGI (786-0 renal): 7.92 µM
- GI50 (A498 renal): 0.305 µM
- TGI (A498 renal): 5.86 µM
- GI50 (A549 NSCLC): 3.51 µM
- TGI (A549 NSCLC): 6.98 µM
- GI50 (ACHN renal): 1.95 µM
- TGI (ACHN renal): 5.78 µM
- GI50 (BT-549 breast): 4.05 µM
- TGI (BT-549 breast): 8.03 µM
- GI50 (CAKI-1 renal): 0.747 µM
- TGI (CAKI-1 renal): 13.6 µM
- GI50 (CCRF-CEM leukemia): 5.87 µM
- TGI (CCRF-CEM leukemia): 19 µM
- GI50 (COLO 205 colon): 4.07 µM
- TGI (COLO 205 colon): 7.49 µM
- GI50 (DU-145 prostate): 3.13 µM
- TGI (DU-145 prostate): 6.26 µM
- GI50 (EKVX NSCLC): 4.19 µM
- TGI (EKVX NSCLC): 8 µM
- GI50 (HCC-2998 colon): 4.01 µM
- TGI (HCC-2998 colon): 7.86 µM
- GI50 (HCT-116 colon): 3.49 µM
- TGI (HCT-116 colon): 6.73 µM
- GI50 (HCT-15 colon): 3.78 µM
- TGI (HCT-15 colon): 8.2 µM
- GI50 (HL-60(TB) leukemia): 6.91 µM
- TGI (HL-60(TB) leukemia): 16 µM
- GI50 (HOP-62 NSCLC): 3.84 µM
- TGI (HOP-62 NSCLC): 7.51 µM
- GI50 (HOP-92 NSCLC): 1.74 µM
- TGI (HOP-92 NSCLC): 5.99 µM
- GI50 (HS 578T breast): 3.77 µM
- TGI (HS 578T breast): 13.6 µM
- GI50 (HT29 colon): 4.15 µM
- TGI (HT29 colon): 7.69 µM
- GI50 (IGROV1 ovarian): 3.49 µM
- TGI (IGROV1 ovarian): 11.2 µM
- GI50 (K-562 leukemia): 6.62 µM
- TGI (K-562 leukemia): 19.6 µM
- GI50 (KM12 colon): 3.05 µM
- TGI (KM12 colon): 6.23 µM
- GI50 (LOX IMVI melanoma): 3.74 µM
- TGI (LOX IMVI melanoma): 7.58 µM
- GI50 (M14 melanoma): 4.03 µM
- TGI (M14 melanoma): 8.07 µM
- GI50 (MALME-3M melanoma): 4.39 µM
- TGI (MALME-3M melanoma): 9.17 µM
- GI50 (MCF7 breast): 4.14 µM
- TGI (MCF7 breast): 7.82 µM
- GI50 (MDA-MB-231 breast): 3.33 µM
- TGI (MDA-MB-231 breast): 6.97 µM
- GI50 (MDA-MB-435): 2.58 µM
- TGI (MDA-MB-435): 5.78 µM
- GI50 (MOLT-4 leukemia): 6.85 µM
- TGI (MOLT-4 leukemia): 15.4 µM
- GI50 (NCI-H226 lung): 4.14 µM
- TGI (NCI-H226 lung): 7.72 µM
- GI50 (NCI-H23 lung): 4.07 µM
- TGI (NCI-H23 lung): 8.61 µM
- GI50 (NCI-H460 lung): 4.46 µM
- TGI (NCI-H460 lung): 13.6 µM
- GI50 (NCI-H522 lung): 4.18 µM
- TGI (NCI-H522 lung): 8.12 µM
- GI50 (NCI/ADR-RES ovarian): 4.23 µM
- TGI (NCI/ADR-RES ovarian): 11 µM
- GI50 (OVCAR-3 ovarian): 4.28 µM
- TGI (OVCAR-3 ovarian): 7.72 µM
- GI50 (OVCAR-4 ovarian): 4.48 µM
- TGI (OVCAR-4 ovarian): 9.81 µM
- GI50 (OVCAR-5 ovarian): 3.65 µM
- TGI (OVCAR-5 ovarian): 7.5 µM
- GI50 (OVCAR-8 ovarian): 4.09 µM
- TGI (OVCAR-8 ovarian): 8.91 µM
- GI50 (PC-3 prostate): 4.32 µM
- TGI (PC-3 prostate): 10.6 µM
- GI50 (RPMI-8226 leukemia): 6.45 µM
- TGI (RPMI-8226 leukemia): 19.7 µM
- GI50 (RXF 393 renal): 1.81 µM
- TGI (RXF 393 renal): 5.42 µM
- GI50 (SF-268 CNS): 4.19 µM
- TGI (SF-268 CNS): 8.1 µM
- GI50 (SF-295 CNS): 3.86 µM
- TGI (SF-295 CNS): 8.15 µM
- GI50 (SF-539 CNS): 3.98 µM
- TGI (SF-539 CNS): 8.34 µM
- GI50 (SK-MEL-2 melanoma): 3.25 µM
- TGI (SK-MEL-2 melanoma): 7.28 µM
- GI50 (SK-MEL-28 melanoma): 4.44 µM
- TGI (SK-MEL-28 melanoma): 8.25 µM
- GI50 (SK-MEL-5 melanoma): 3.32 µM
- TGI (SK-MEL-5 melanoma): 6.51 µM
- GI50 (SK-OV-3 ovarian): 2.24 µM
- TGI (SK-OV-3 ovarian): 6.86 µM
- GI50 (SN12C renal): 3.54 µM
- TGI (SN12C renal): 7.14 µM
- GI50 (SNB-19 CNS): 4.64 µM
- TGI (SNB-19 CNS): 8.51 µM
- GI50 (SNB-75 CNS): 3.09 µM
- TGI (SNB-75 CNS): 8.42 µM
- GI50 (SR leukemia): 6.36 µM
- TGI (SR leukemia): 17.5 µM
- GI50 (SW-620 colon): 3.72 µM
- TGI (SW-620 colon): 7.62 µM
- GI50 (T-47D breast): 2.95 µM
- TGI (T-47D breast): 6.58 µM
- GI50 (TK-10 renal): 2.98 µM
- TGI (TK-10 renal): 6.19 µM
- GI50 (U251 CNS): 3.71 µM
- TGI (U251 CNS): 7.06 µM
- GI50 (UACC-257 melanoma): 3.88 µM
- TGI (UACC-257 melanoma): 7.46 µM
- GI50 (UACC-62 melanoma): 3.15 µM
- TGI (UACC-62 melanoma): 6.34 µM
- GI50 (UO-31 renal): 1.82 µM
- TGI (UO-31 renal): 6.18 µM
